Data as given in patent US20240000826A1, “METHODS FOR THE TREATMENT OF CARDIOVASCULAR DISEASE WITH CYCLODEXTRINS” (Beren Therapeutics P.B.C., priority 2020, published 2024).

What was measured:
[1] = test system: cholesterol crystals; test: cholesterol crystal dissolution capacity (CCDC) assay of plasma from treated subject; assay type: in vivo; settings: one human subject; single-ascending IV doses 500, 750, 1,000, 1,000 mg/kg every 4 weeks; plasma pre-dose, post-dose, 1 hour and 24 hours post-dose; FIG. 3A
Experimental: (§2) For each dose, whole blood was collected pre-dose, post-dose (line flush), 1 hour post-dose, and 24 hours post-dose. Plasma was separated from the whole blood and subjected to a cholesterol crystal dissolution capacity (CCDC) assay using techniques similar to those described in the literature. The CCDC assay measures the ability of a sample to dissolve cholesterol crystals.

[2] = test system: cholesterol crystals; test: CCDC of pre-dose blood plasma incubated ex vivo with 2-hydroxypropyl-beta-cyclodextrin; design: species or system human; settings: pre-dose plasma treated ex vivo with 2-hydroxypropyl-beta-cyclodextrin; FIG. 3B
Experimental: as §2

[3] = test system: 24S-hydroxycholesterol; test: plasma level of 24S-hydroxycholesterol in treated subject; assay type: in vivo; settings: one human subject; IV 500-1,000 mg/kg every 4 weeks as in Example 2; FIGS. 4A-4C
From the text: (§1) The increased production of 24S-hydroxycholesterol and 27-hydroxycholesterol enhance cholesterol metabolism, by acting as endogenous ligands for LXR transcription factors responsible for an anti-inflammatory gene signature.

[4] = test system: 27-hydroxycholesterol; test: plasma level of 27-hydroxycholesterol in treated subject; assay type: in vivo; settings: one human subject; IV 500-1,000 mg/kg every 4 weeks as in Example 2; FIGS. 4A-4C
From the text: as §1

[5] = test system: total cholesterol; test: total cholesterol level in treated subject; assay type: in vivo; settings: one human subject; IV 500-1,000 mg/kg every 4 weeks as in Example 2; FIGS. 4A-4C
From the text: as §1

[6] = test system: ABCA1; test: ABCA1 mRNA level in treated subject; assay type: in vivo; settings: one human subject; IV 500-1,000 mg/kg every 4 weeks as in Example 2; FIGS. 5A-5D
[7] = test system: ABCG1; test: ABCG1 mRNA level in treated subject; assay type: in vivo; settings: one human subject; IV 500-1,000 mg/kg every 4 weeks as in Example 2; FIGS. 5A-5D

2-hydroxypropyl-beta-cyclodextrin
capability of blood plasma to dissolve cholesterol crystals (CCDC) [1]: increased capability of blood plasma to dissolve cholesterol crystals | capacity of plasma to dissolve cholesterol crystals [2]: increased capacity to dissolve cholesterol crystals | plasma level of 24S-hydroxycholesterol [3]: increased plasma levels | plasma level of 27-hydroxycholesterol [4]: increased plasma levels | total cholesterol levels [5]: remained stable | ABCA1 mRNA levels [6]: increased mRNA levels | ABCG1 mRNA levels [7]: increased mRNA levels
